Tests used:
[1] = system: Human Umbilical Vein Endothelial Cell (HUVEC); assay: Inhibitory effect on growth of human umbilical vein endothelial cell (HUVEC), MTS; format: cell-based; conditions: 10 ng/ml VEGF, absorbance 490 nm
VEGFR2 (KDR) = VEGFR2 (KDR) (Homo sapiens (Human), UniProt P35968); assay: VEGFR2 (KDR) enzyme assay, fluorescence polarization; format: biochemical; conditions: 5 μM ATP, poly(Glu, Tyr) substrate
Procedure, shortened: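 Autophosphorylation read by fluorescence polarization: VEGFR2 (Proquinase) at 200 ng/10 μl with 5 μM ATP and 10 ng/ml poly(Glu,Tyr) 4:1, in 20 mM HEPES pH 7.4, 5 mM MgCl2, 2 mM MnCl2, 50 μM Na3VO4. Reaction 1 h at room temperature, EDTA stop, then anti-phosphotyrosine antibody/tracer for 30 min in the dark.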

EGFR1 (HER-1) = EGFR1 (HER-1) (Homo sapiens (Human), UniProt P00533); assay: EGFR1 (HER-1) enzyme assay, fluorescence polarization; format: biochemical; conditions: 100 μM ATP, poly(Glu, Tyr) substrate
[2] = system: skin cancer cell line, A431; assay: Inhibitory effect on growth of cancer cell line A431, SRB; format: cell-based; conditions: overexpressed EGFR1 (HER-1)
Procedure, shortened: (§1)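 Cells were cultured in DMEM with 10% FBS. Compounds were applied at 10 μM with 10-fold serial dilution to 10^−4, DMSO <1%, for 72 h at 37 °C. Cells were then TCA-fixed and stained with 0.4% SRB, and absorbance was read at 570 nm after solubilisation in 10 mM Tris base.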

[3] = system: breast cancer cell line, SK-Br3; assay: Inhibitory effect on growth of cancer cell line SK-Br3, SRB; format: cell-based; conditions: overexpressed EGFR2 (HER-2)
Procedure, shortened: as §1

[4] = system: colon and rectal cancer cell line, SW-620; assay: Inhibitory effect on growth of cancer cell line SW-620, SRB; format: cell-based; conditions: not having overexpressed EGFR and EGFR2
Procedure, shortened: as §1

Sequence of VEGFR2 (KDR) (P35968 20-1356): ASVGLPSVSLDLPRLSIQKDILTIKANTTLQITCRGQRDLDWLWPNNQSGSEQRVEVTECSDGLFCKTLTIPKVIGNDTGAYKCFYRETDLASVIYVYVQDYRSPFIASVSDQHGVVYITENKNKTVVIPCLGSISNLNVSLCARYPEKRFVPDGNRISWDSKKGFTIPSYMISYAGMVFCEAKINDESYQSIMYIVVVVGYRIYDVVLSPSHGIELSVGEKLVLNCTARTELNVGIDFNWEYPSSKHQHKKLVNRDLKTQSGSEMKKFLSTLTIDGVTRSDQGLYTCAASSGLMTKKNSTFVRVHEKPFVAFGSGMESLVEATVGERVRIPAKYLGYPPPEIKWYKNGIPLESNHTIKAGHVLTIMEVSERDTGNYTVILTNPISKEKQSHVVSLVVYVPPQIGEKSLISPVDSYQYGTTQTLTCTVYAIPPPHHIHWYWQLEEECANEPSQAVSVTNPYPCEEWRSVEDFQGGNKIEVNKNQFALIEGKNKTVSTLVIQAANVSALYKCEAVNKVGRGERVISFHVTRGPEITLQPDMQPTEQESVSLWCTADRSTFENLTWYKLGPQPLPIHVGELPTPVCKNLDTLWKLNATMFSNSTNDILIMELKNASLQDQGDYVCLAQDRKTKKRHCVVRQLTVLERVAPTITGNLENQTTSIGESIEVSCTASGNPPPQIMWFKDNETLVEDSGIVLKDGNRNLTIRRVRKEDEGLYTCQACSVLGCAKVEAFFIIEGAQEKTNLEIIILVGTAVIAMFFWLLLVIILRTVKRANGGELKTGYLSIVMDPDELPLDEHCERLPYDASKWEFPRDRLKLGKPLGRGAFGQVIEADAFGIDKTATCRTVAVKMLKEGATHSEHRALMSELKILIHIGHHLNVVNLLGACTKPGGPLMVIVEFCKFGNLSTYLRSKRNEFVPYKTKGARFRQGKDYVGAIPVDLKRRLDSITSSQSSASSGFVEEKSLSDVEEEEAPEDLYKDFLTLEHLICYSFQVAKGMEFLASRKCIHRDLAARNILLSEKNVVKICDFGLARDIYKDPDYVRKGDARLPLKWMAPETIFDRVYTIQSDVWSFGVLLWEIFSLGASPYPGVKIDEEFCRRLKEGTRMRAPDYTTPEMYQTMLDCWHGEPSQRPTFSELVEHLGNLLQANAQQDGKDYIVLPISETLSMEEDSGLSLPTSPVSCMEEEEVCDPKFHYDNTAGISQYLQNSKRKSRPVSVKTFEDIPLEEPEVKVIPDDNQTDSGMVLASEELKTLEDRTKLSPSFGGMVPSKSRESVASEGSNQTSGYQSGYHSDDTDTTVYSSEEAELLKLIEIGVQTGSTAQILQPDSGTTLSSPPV

| Molecule | IC50 (VEGFR2 (KDR)) [nM] | IC50 (EGFR1 (HER-1)) [nM] | IC50 ([2]; Homo sapiens, A-431, 72 h) [nM] | IC50 ([3]; Homo sapiens, SK-BR-3, 72 h) [nM] | IC50 ([4]; Homo sapiens, 72 h) [nM] | IC50 ([2]; 72 hours) [nM] | IC50 ([3]; 72 hours) [nM] | IC50 ([4]; 72 hours) [nM] | IC50 ([1]; Homo sapiens, 96 h) [nM] | IC50 ([1]; 96 hours) [nM] |
| --- | --- | --- | --- | --- | --- | --- | --- | --- | --- | --- |
| C=CC(=O)Nc1cc2c(Nc3ccc(Br)cc3F)ncnc2cc1SCCNC(C)=O [Example 43, N-[7-(2-acetylamino-ethylsulfanyl)-4-(4-bromo-2-fluoro-phenylamino)-quinazolin-6-yl]-acrylamide] | 785 | 109 | 104 | 4340 | 3670 | – | – | – | 987 | – |
| C=CC(=O)Nc1cc2c(Nc3ccc(Br)cc3F)ncnc2cc1OCCNC(=O)C(COC)N(C)C (stereo not drawn) [Example 161, N-{4-(4-bromo-2-fluoro-phenylamino)-7-[2-(2-dimethylamino-3-methoxy-propionylamino)-ethoxy]-quinazolin-6-yl}-acrylamide] | 1120 | 57 | 95 | 118 | 10000 | – | – | – | 1230 | – |
| C=CC(=O)Nc1cc2c(Nc3cc(Cl)c(Cl)cc3Cl)ncnc2cc1OCCNC(C)=O [Example 122, N-[7-(2-acetylamino-ethoxy)-4-(2,4,5-trichloro-phenylamino)-quinazolin-6-yl]-acrylamide] | 789 | 876 | 1030 | 1020 | 2320 | – | – | – | 913 | – |
| C=CC(=O)Nc1cc2c(Nc3ccc(Br)cc3F)ncnc2cc1OCC1CNC(=O)O1 (stereo not drawn) [Example 91, N-[4-(4-bromo-2-fluoro-phenylamino)-7-(2-oxo-oxazolidin-5-ylmethoxy)-quinazolin-6-yl]-acrylamide] | 587 | 17 | 15 | 335 | 2790 | – | – | – | 696 | – |
| C=CC(=O)Nc1cc2c(Nc3ccc(Cl)nc3)ncnc2cc1OCCNC(C)=O [Example 128, N-[7-(2-acetylamino-ethoxy)-4-(6-chloro-pyridin-3-ylamino)-quinazolin-6-yl]-acrylamide] | 823 | 65 | 68 | 95 | 10000 | – | – | – | 945 | – |
| C=CC(=O)Nc1cc2c(Nc3ccc(Br)cc3F)ncnc2cc1OCC(CC)NC(=O)CN(C)C (stereo not drawn) [Example 160, N-{4-(4-bromo-2-fluoro-phenylamino)-7-[2-(2-dimethylamino-acetylamino)-butoxy]-quinazolin-6-yl}-acrylamide] | 984 | 23 | 55 | 96 | 6550 | – | – | – | 867 | – |
| C=CC(=O)Nc1cc2c(Nc3ccc(Br)cc3F)ncnc2cc1OCCNC(=O)CN1CCC1 [Example 110, N-[7-[2-(2-azetidin-1-yl-acetylamino)-ethoxy]-4-(4-bromo-2-fluoro-phenylamino)-quinazolin-6-yl]-acrylamide] | 951 | 987 | 1020 | 1360 | 4590 | – | – | – | 956 | – |
| C=CC(=O)Nc1cc2c(Nc3cc(F)c(Br)cc3F)ncnc2cc1OCCNC(C)=O [Example 119, N-[7-(2-acetylamino-ethoxy)-4-(4-bromo-2,5-difluoro-phenylamino)-quinazolin-6-yl]-acrylamide] | 782 | 12 | 14 | 178 | 2890 | – | – | – | 921 | – |
| C=CC(=O)Nc1cc2c(Nc3ccc(Br)cc3F)ncnc2cc1OCCNC(=S)NC [Example 35, N-{4-(4-bromo-2-fluoro-phenylamino)-7-[2-(3-methyl-thioureido)-ethoxy]-quinazolin-6-yl}-acrylamide] | 457 | 98 | 90 | 225 | 9560 | – | – | – | 951 | – |
| C=CC(=O)Nc1cc2c(Nc3ccc(Br)c(F)c3)ncnc2cc1OCCNC(=O)CN(C)C [Example 79, N-4-(4-bromo-3-fluoro-phenylamino)-7-[2-(2-dimethylamino-acetylamino)-ethoxy]-quinazolin-6-yl-acrylamide] | 1430 | 78 | – | – | – | 84 | 313 | 10000 | – | 723 |
| C=CC(=O)Nc1cc2c(Nc3ccc(Br)cc3F)ncnc2cc1OCCNC(=O)CCN1CCCCC1 [Example 104, N-{4-(4-bromo-2-fluoro-phenylamino)-7-[2-(3-piperidin-1-yl-propionylamino)-ethoxy]-quinazolin-6-yl}-acrylamide] | 945 | 14 | 16 | 93 | 5260 | – | – | – | 855 | – |
| N-{2-[6-acryloylamino-4-(4-bromo-2,3-difluoro-phenylamino)-quinazolin-7-oxy]-ethyl}-4-dimethylamino-butylamide [Example 127] | 958 | 568 | – | – | – | 698 | 1020 | 6510 | – | 676 |
| C=CC(=O)Nc1cc2c(Nc3ccc(Br)cc3F)ncnc2cc1OCCNC(=O)C(=C)C [Example 49, N-{2-[6-acryloylamino-4-(4-bromo-2-fluoro-phenylamino)-quinazolin-7-yloxy]-ethyl}-2-methyl-acrylamide] | 854 | 69 | 62 | 243 | 4590 | – | – | – | 964 | – |

The next molecules have a lower IC50 (VEGFR2 (KDR)) than those just listed; values first:

| IC50 (VEGFR2 (KDR)) [nM] | IC50 (EGFR1 (HER-1)) [nM] | IC50 ([2]; Homo sapiens, A-431, 72 h) [nM] | IC50 ([3]; Homo sapiens, SK-BR-3, 72 h) [nM] | IC50 ([4]; Homo sapiens, 72 h) [nM] | IC50 ([2]; 72 hours) [nM] | IC50 ([3]; 72 hours) [nM] | IC50 ([4]; 72 hours) [nM] | Molecule | IC50 ([1]; Homo sapiens, 96 h) [nM] | IC50 ([1]; 96 hours) [nM] |
| --- | --- | --- | --- | --- | --- | --- | --- | --- | --- | --- |
| 45 | 36 | 51 | 266 | 2580 | – | – | – | C=CC(=O)Nc1cc2c(Nc3ccc(Br)cc3F)ncnc2cc1OCC1CCN(C(=O)NCCC)CC1 [Example 9, 4-[6-acryloylamino-4-(4-bromo-2-fluoro-phenylamino)-quinazolin-7-yloxymethyl]-piperidin-1-carboxylic acid propylamide] | 48 | – |
| 125 | 21 | – | – | – | 11 | 103 | 10000 | N-{2-[6-acryloylamino-4-(4-bromo-2-fluoro-phenylamino)-quinazolin-7-yloxy]-ethyl}-4-dimethylamino-butylamide [Example 66] | – | 238 |
| 38 | 8 | 12 | 32 | 10000 | – | – | – | C=CC(=O)Nc1cc2c(Nc3ccc(Br)c(Cl)c3F)ncnc2cc1OCCNC(=O)NCC [Example 168, N-{4-(4-bromo-3-chloro-2-fluoro-phenylamino)-7-[2-(3-ethyl-ureido)-ethoxy]-quinazolin-6-yl}-acrylamide] | 117 | – |
| 198 | 44 | 45 | 111 | 10000 | – | – | – | C=CC(=O)Nc1cc2c(Nc3ccc(Br)cc3F)ncnc2cc1OCCNC(=O)CCN(CC)CC [Example 59, N-{4-(4-bromo-2-fluoro-phenylamino)-7-[2-(3-diethylamino-propionylamino)-ethoxy]-quinazolin-6-yl}-acrylamide] | 204 | – |
| 203 | 3 | 37 | 241 | 2350 | – | – | – | C=CC(=O)Nc1cc2c(Nc3ccc(Br)cc3F)ncnc2cc1OCC1CCN(C(=O)C=C)CC1 [Example 5, N-[7-(1-acryloyl-piperidin-4-ylmethoxy)-4-(4-bromo-2-fluoro-phenylamino)-quinazolin-6-yl]-acrylamide] | 34 | – |
| 250 | 4 | 40 | 75 | 7600 | – | – | – | C=CC(=O)Nc1cc2c(Nc3ccc(Br)cc3F)ncnc2cc1OCCNC(N)=O [Example 24, N-[4-(4-bromo-2-fluoro-phenylamino)-7-(2-ureido-ethoxy)-quinazolin-6-yl]-acrylamide] | 90 | – |
| 215 | 89 | 73 | 983 | 2220 | – | – | – | C=CC(=O)Nc1cc2c(Nc3ccc(Br)cc3F)ncnc2cc1OCCNC(=O)CCO [Example 67, N-{4-(4-bromo-2-fluoro-phenylamino)-7-[2-(3-hydroxy-propionylamino)-ethoxy]-quinazolin-6-yl}-acrylamide] | 351 | – |
| 79 | 12 | 40 | 125 | 9530 | – | – | – | C=CC(=O)Nc1cc2c(Nc3ccc(Br)c(Cl)c3F)ncnc2cc1OCCNC(=O)CCN1CCCCC1 [Example 147, N-{4-(4-bromo-3-chloro-2-fluoro-phenylamino)-7-[2-(3-piperidin-1-yl-propionylamino)-ethoxy]-quinazolin-6-yl}-acrylamide] | 167 | – |
| 87 | 19 | 11 | 7 | 2810 | – | – | – | C=CC(=O)Nc1cc2c(Nc3ccc(Br)c(Cl)c3F)ncnc2cc1OCCNC(=O)CN(C)C [Example 143, N-{4-(4-bromo-3-chloro-2-fluoro-phenylamino)-7-[2-(2-dimethylamino-acetylamino)-ethoxy]-quinazolin-6-yl}-acrylamide] | 239 | – |

— patent US8846699B2, “Quinazoline derivatives as a multiplex inhibitor and method for the preparation thereof” (Hanmi Pharm. Co., Ltd., priority 2005, dated 2014)
